Laboratory results taken from patent publication US20100204460A1, “NATURAL BRASSINOSTEROIDS FOR USE FOR TREATING HYPERPROLIFERATION, TREATING PROLIFERATIVE DISEASES AND REDUCING ADVERSE EFFECTS OF STEROID DYSFUNCTION IN MAMMALS, PHARMACEUTICAL COMPOSITION AND ITS USE” (priority 2007, published 2010).
Entries after “also recorded” stand apart in the source; their conditions may differ. Where two headings read alike, the source gives them in different places.

Experiments:
[1] = tested on: malignant human melanoma cell line G361; experiment: Calcein AM cytotoxicity assay, G 361; assay type: cell-based
[2] = tested on: normal human fibroblasts (BJ); experiment: Calcein AM cytotoxicity assay, BJ; assay type: cell-based; conditions: read-out: IC50 assessed by Calcein AM assay of surviving cells
[3] = tested on: T-lymphoblastic leukaemia cell line CEM; experiment: Calcein AM cytotoxicity assay, CEM; assay type: cell-based; conditions: read-out: IC50 assessed by Calcein AM assay of surviving cells
[4] = tested on: multiple myeloma cell line RPMI 8226; experiment: Calcein AM cytotoxicity assay, RPMI 8226; assay type: cell-based; conditions: exposure 72 h (b71 says 96 h), mean ± SD
[5] = tested on: normal and cancer cell lines of different histopathological origin; experiment: Calcein AM cytotoxicity assay, summary statements over the cell line panel; assay type: cell-based; conditions: for cytotoxic / growth inhibitory activity in words: tested in amounts up to 50 μmol/L per assay
Experimental: Stock solutions ([…]) were prepared by dissolving relevant quantity of substance in DMSO cultivation media (DMEM, RPMI 1640, F-12 medium), fetal bovine serum (FBS), L-glutamine, penicillin, and streptomycin were purchased from Sigma (MO, USA). 3-(4,5-Dimethylthiazol-2-yl)-2,5-diphenyltetrazolium bromide (MTT) was from Serva Electrophoresis (Heidelberg, Germany). Monoclonal mouse anti-bromodeoxyuridine (BrdU) intibody was obtained from DakoCytomation (Glostrup, Denmark). Calcein AM was obtained from PAA Laboratories GmbH (Pasching, Austria). The screening cell lines (T-lymphoblastic leukaemia cell line CEM; breast carcinoma cell line MCF-7 (estrogen-sensitive), breast adenocarcinoma cell line MDA-MB 468 (cell lines LNCaP (androgen-sensitive), prostate carcinoma cell line DU-145 ([…]), lung carcinoma cell line A-549, chronic myelogenous leukemia cell line K562, multiple myeloma cell line RPMI 8226, cervical carcinoma cell line HeLa, malignant human melanoma cell line G361, osteosarcoma cell line HOS, and normal human fibroblasts (BJ) were obtained from the American Type Culture Collection (Manassas, Va., USA). MCF-7 cells were cultured in F-12 medium (Sigma, MO, USA). LNCaP cells were cultured in RPMI 1640 medium (GIBCO, USA). All other cells were cultured in DMEM medium (Sigma, MO, USA). All used media were supplemented with 10% heat-inactivated fetal bovine serum, 2 mmol/L L-glutamine, 1% penicillin/streptomycin. The cell lines were maintained under standard cell culture conditions at 37° C. and 5% CO2 in a humid environment. Cells were subcultured twice or three times a week using the standard trypsinization procedure (Sigma, USA).
The cell suspension of approximate density of 1.25×10^5 cells/mL was redistributed into 96-well microtitre plates and after 12 h of stabilization the tested Brassinosteroids (BRs) were added in different concentrations. BRs were dissolved in DMSO. Control cultures were treated with DMSO alone. The final concentration of DMSO in the reaction mixture never exceeded 1%. Tested compounds in given concentrations were added at time zero in 20 μL aliquots to the microtiter plate wells. Usually, each test compound was evaluated at six 4-fold dilutions. In routine testing, the highest well concentration was 50 μmol, but it can be the matter of change dependent on the agent. Cultivation proceeds 96 h at 37° C., the cells were incubated with Calcein AM solution (Molecular Probes) for 1 h. Fluorescence (OD) of viable cells was quantified with Fluoroscan Ascent (Microsystems). The cell survival (IC50) was calculated using the following equation: IC50=(ODdrug exposed well/mean ODcontrol wells)×100%. Each compound was tested in triplicates and the test was repeated at least 3 times. The IC50 value, corresponding to drug concentration lethal to 50% of the tumor cells, was calculated from the obtained dose response curves.
We investigated effects of brassinosteroid on viability of normal and cancer cell lines of different histopathological origin. To evaluate the cytotoxic properties of several BRs and some related steroids, we used T-lymphoblastic leukaemia cell line CEM, breast carcinoma cell line MCF-7, lung carcinoma cell line A-549, chronic myeloid leukaemia cell line K562, multiple myeloma cell line RPMI 8226, cervical carcinoma cell line HeLa, malignant melanoma cell line G361, osteosarcoma cell line HOS, and normal human fibroblasts BJ. The cells were exposed to six 4-fold dilutions of each drug for 72 h to determinate number of surviving cells.

[6] = tested on: measles virus (MV); conditions: cited from earlier work
[7] = tested on: arena viruses; conditions: cited from earlier work
[8] = tested on: herpes simplex virus type 1 (HSV-1); conditions: cited from earlier work
[9] = Homo sapiens, G 361, exposure 72 h (b71 says 96 h), mean ± SD, read-out: IC50 assessed by Calcein AM assay of surviving cells
[10] = Homo sapiens, Fibroblast, BJ normal fibroblasts, exposure 72 h (b71 says 96 h), mean ± SD
[11] = CEM, six 4-fold dilutions, exposure 72 h (b71 says 96 h), mean ± SD
[12] = Homo sapiens, RPMI-8226, RPMI 8226, read-out: IC50 assessed by Calcein AM assay of surviving cells
[13] = G 361, exposure 72 h (b71 says 96 h), mean ± SD, read-out: IC50 assessed by Calcein AM assay of surviving cells
[14] = BJ normal fibroblasts, exposure 72 h (b71 says 96 h), mean ± SD
[15] = RPMI 8226, read-out: IC50 assessed by Calcein AM assay of surviving cells
[16] = Homo sapiens, G-361, read-out: IC50 assessed by Calcein AM assay of surviving cells
[17] = Homo sapiens, RPMI-8226, read-out: IC50 assessed by Calcein AM assay of surviving cells, RPMI 8226

Row | Structure (SMILES) | IC50 [3, 11] | cytotoxic / growth inhibitory activity in words [5] | IC50 [1, 13] | IC50 [2, 14] | IC50 [4, 15] | further results
1 | CC(C)CCC[C@@H](C)[C@H]1CC[C@H]2[C@@H]3CC[C@H]4CCCC[C@]4(C)[C@H]3CC[C@]12C [5α-cholestane] | > 50 µM | Almost zero activity | – | – | – | IC50 [1, 9]: > 50 µM; IC50 [2, 10]: > 50 µM; IC50 [4, 12]: > 50 µM
2 | CC(C)[C@@H](C)[C@H](O)[C@@H](O)[C@@H](C)[C@H]1CC[C@H]2[C@@H]3COC(=O)[C@H]4C[C@H](O)[C@H](O)C[C@]4(C)[C@H]3CC[C@]12C [22S,23S-24-Epibrassinolide] | > 50 µM | – | > 50 µM | > 50 µM | > 50 µM | –
3 | CC(C)[C@@H](C)[C@H](O)[C@@H](O)[C@@H](C)[C@H]1CC[C@H]2[C@@H]3CC(=O)[C@H]4C[C@H](O)[C@H](O)C[C@]4(C)[C@H]3CC[C@]12C [22S,23S-24-Epicastasterone] | 49 ± 1.8 µM | – | > 50 µM | > 50 µM | > 50 µM | –
4 | CC[C@@H](C(C)C)[C@H](O)[C@@H](O)[C@@H](C)[C@H]1CC[C@H]2[C@@H]3COC(=O)[C@H]4C[C@H](O)[C@H](O)C[C@]4(C)[C@H]3CC[C@]12C [22S,23S-28-Homobrassinolide] | 35 ± 2.2 µM | – | > 50 µM | > 50 µM | 31 ± 7.3 µM | IC50 ([5]; range over RPMI 8226 and CEM values of Table 1): 31 to 35 µM
5 | CC[C@@H](C(C)C)[C@H](O)[C@@H](O)[C@@H](C)[C@H]1CC[C@H]2[C@@H]3CC(=O)[C@H]4C[C@H](O)[C@H](O)C[C@]4(C)[C@H]3CC[C@]12C [22S,23S-28-Homocastasterone] | 24 ± 1.5 µM | – | 45 ± 2.2 µM | > 50 µM | 25 µM | –
6 | CC(C)[C@@H](C)/C=C/[C@@H](C)[C@H]1CC[C@H]2[C@@H]3CC=C4C[C@@H](O)CC[C@]4(C)[C@H]3CC[C@]12C [Brassicasterol] | > 50 µM | Almost zero activity | > 50 µM | > 50 µM | > 50 µM | –
7 | CC(C)[C@H](C)[C@@H](O)[C@H](O)[C@@H](C)[C@H]1CCC2C3COC(=O)C4C[C@H](O)[C@H](O)C[C@]4(C)C3CC[C@@]21C (some centres unmarked) [Brassinosteroid 1] | – | – | – | – | – | IC50 [1, 16]: > 50 µM; IC50 ([2]; Homo sapiens, Fibroblast): > 50 µM; IC50 [3]: > 50 µM; IC50 [4, 17]: > 50 µM
8 | CC[C@@H](C(C)C)[C@@H](O)[C@H](O)[C@@H](C)[C@H]1CC[C@H]2[C@@H]3COC(=O)[C@H]4C[C@H](O)[C@H](O)C[C@]4(C)[C@H]3CC[C@]12C [Brassinosteroid 2, 28-Homobrassinolide] | – | – | – | – | – | in vitro antiviral activity [6]: in vitro antiviral activity; in vitro antiviral activity [7]: in vitro antiviral activity; in vitro antiviral activity [8]: in vitro antiviral activity
9 | CC[C@@H](C(C)C)[C@@H](O)[C@H](O)[C@@H](C)[C@H]1CCC2C3COC(=O)C4C[C@H](O)[C@H](O)C[C@]4(C)C3CC[C@@]21C (some centres unmarked) [Brassinosteroid 2] | 48 ± 1.3 µM | – | – | – | – | IC50 [1, 9]: > 50 µM; IC50 [2, 10]: > 50 µM; IC50 [4, 12]: > 50 µM
10 | CC(C)[C@H](C)[C@@H](O)[C@H](O)[C@@H](C)[C@H]1CC[C@H]2[C@@H]3CC(=O)[C@H]4C[C@H](O)[C@H](O)C[C@]4(C)[C@H]3CC[C@]12C [Brassinosteroid 8, Castasterone] | – | high cytotoxicity | – | – | – | –
11 | CC(C)[C@H](C)[C@@H](O)[C@H](O)[C@@H](C)[C@H]1CCC2C3CC(=O)C4C[C@H](O)[C@H](O)C[C@]4(C)C3CC[C@@]21C (some centres unmarked) [Brassinosteroid 8] | 16 ± 5.3 µM | – | – | – | – | IC50 [1, 9]: > 50 µM; IC50 [2, 10]: > 50 µM; IC50 [4, 12]: 33 ± 1.3 µM
12 | CC(C)[C@H](C)[C@@H](O)[C@H](O)[C@@H](C)[C@H]1CCC2C3CC(=O)C4C[C@H](O)[C@@H](O)C[C@]4(C)C3CC[C@@]21C (some centres unmarked) [Brassinosteroid 16] | > 50 µM | – | > 50 µM | > 50 µM | > 50 µM | –
13 | CC(C)CCC[C@@H](C)[C@H]1CC[C@H]2[C@@H]3CC=C4C[C@@H](O)CC[C@]4(C)[C@H]3CC[C@]12C [Cholesterol] | > 50 µM | – | – | – | 38 ± 2.9 µM | IC50 [1, 9]: > 50 µM; IC50 [2, 10]: > 50 µM; IC50 [4, 12]: > 30 µM
14 | CC[C@H](CC[C@@H](C)[C@H]1CC[C@H]2[C@@H]3CC=C4C[C@@H](O)CC[C@]4(C)[C@H]3CC[C@]12C)C(C)C [Sitosterol] | > 50 µM | Almost zero activity | > 50 µM | > 50 µM | 32 ± 1.6 µM | –
15 | CC[C@H](/C=C/[C@@H](C)[C@H]1CC[C@H]2[C@@H]3CC=C4C[C@@H](O)CC[C@]4(C)[C@H]3CC[C@]12C)C(C)C [Stigmasterol] | – | Almost zero activity | – | – | – | IC50 [1, 16]: > 50 µM; IC50 ([2]; Homo sapiens, Fibroblast): > 50 µM; IC50 [3]: > 50 µM; IC50 [4, 17]: > 30 µM; IC50 ([4]; read-out: IC50 assessed by Calcein AM assay of surviving cells, RPMI 8226): 32 ± 0.6 µM
16 | CC(C)(O)CC[C@@H](O)[C@](C)(O)[C@H]1CC[C@@]2(O)C3=CC(=O)[C@@H]4C[C@@H](O)[C@@H](O)C[C@]4(C)[C@H]3CC[C@]12C [β-ecdyson] | > 50 µM | – | > 50 µM | > 50 µM | > 50 µM | cytotoxic / growth inhibitory activity in words ([5]; listed as β-ecdysone): Almost zero activity; also recorded: zero growth inhibitory activity
